What was measured:
[1] = test system: LDLR; test: Western blot, LDLR protein level in HepG2 cells; assay type: cell-based, human; details: HepG2, 50 µM, 24 h, mean ± SD
Description: The HepG2 cell line was bought from ATCC (HB-8065, ATCC from LGC Standards, Milan, Italy) and was cultured in DMEM high glucose with stable L-glutamine, supplemented with 10% FBS, 100 U/mL penicillin, 100 µg/mL streptomycin (complete growth medium) with incubation at 37 °C under 5% CO2 atmosphere.
Immunoblotting experiments were performed using optimized protocol. A total of 1.5 × 10^5 HepG2 cells/well (24-well plate) were treated with 50 μM of P5 and P5-met for 24 h. After each treatment, the supernatants were collected and stored at −20°C; cells were scraped in 40 µL ice-cold lysis buffer (RIPA buffer + inhibitor cocktail + 1:100 PMSF + 1:100 Na-orthovanadate + 1:1000 β-mercaptoethanol) and transferred in ice-cold microcentrifuge tubes. […] Total proteins were quantified by the Bradford’s method and 50 μg of total proteins loaded on a pre-cast 7.5% Sodium Dodecyl Sulfate-Polyacrylamide (SDS-PAGE) gel at 130 V for 45 min. […] Target proteins, on milk or BSA blocked membrane, were detected by primary antibodies as follows: anti-SREBP-2, anti-LDLR, anti-HMGCoAR, anti-PCSK9, anti HNF1-α and anti-β-actin. Secondary antibodies conjugated with HRP and a chemiluminescent reagent were used to visualize target proteins and their signal was quantified using the Image Lab Software (Biorad, Hercules, CA, USA). […]

[2] = test system: LDLR on HepG2 cell surface; test: In-cell Western (ICW) assay, LDLR localized on HepG2 cell surface; assay type: cell-based, human
Description: For the experiments, a total of 3 × 10^4 HepG2 cells/well were seeded in 96-well plates. The following day, cells were washed with PBS and then starved overnight (O/N) in DMEM without FBS and antibiotics. After starvation, HepG2 cells were treated with 4.0 μg/mL PCSK9-WT and 4.0 μg/mL PCSK9 + peptides P5 and/or P5-met (50 µM) and vehicle (H2O) for 2 h at 37 °C under 5% CO2 atmosphere. Subsequently, they were fixed in 4% paraformaldehyde for 20 min at room temperature (RT). Cells were washed 5 times with 100 µL of PBS/well (each wash was for 5 min at RT) and the endogenous peroxides activity quenched adding 3% H2O2 for 20 min at RT. Non-specific sites were blocked with 100 µL/well of 5% bovine serum albumin (BSA, Sigma) in PBS for 1.5 h at RT. LDLR primary antibody solution (1:3000 in 5% BSA in PBS, 25 µL/well) was incubated O/N at +4 °C. Subsequently, the primary antibody solution was discarded and each sample was washed 5 times with 100 µL/well of PBS (each wash was for 5 min at RT). Goat anti-rabbit Ig-HRP secondary antibody solution (Santa Cruz) (1:6000 in 5% BSA in PBS, 50 µL/well), was added and incubated 1 h at RT. The secondary antibody solution was washed 5 times with 100 µL/well of PBS (each wash for 5 min at RT). Freshly prepared TMB substrate (Pierce, 100 µL/well) was added and the plate was incubated at RT until desired color was developed. The reaction was stopped with 2 M H2SO4 and then the absorbance at 450 nm was measured using the microplate reader Synergy H1 (Winooski, VT, USA). After the read, cells were stained by adding 1× Janus Green stain, incubating for 5 min at RT. The dye was removed and the sample washed 5 times with water. Afterward 100 µL 0.5 M HCl for well were added and incubated for 10 min. After 10 seconds shaking, the OD at 595 nm was measured using the microplate reader Synergy H1 (Winooski, VT, USA).

[3] = molecular target: T1, HMGCoAR (catalytic domain) (Homo sapiens, UniProt P04035); test: HMGCoAR activity assay; assay type: biochemical; details: 10-500 µM peptide, 37 °C, NADPH absorbance 340 nm at 0 and 10 min
T1 construct: finally the HMGCoAR (catalytic domain) (2 µL); purchased Sigma-Aldrich
T1 sequence (P04035 340-888 limits assumed): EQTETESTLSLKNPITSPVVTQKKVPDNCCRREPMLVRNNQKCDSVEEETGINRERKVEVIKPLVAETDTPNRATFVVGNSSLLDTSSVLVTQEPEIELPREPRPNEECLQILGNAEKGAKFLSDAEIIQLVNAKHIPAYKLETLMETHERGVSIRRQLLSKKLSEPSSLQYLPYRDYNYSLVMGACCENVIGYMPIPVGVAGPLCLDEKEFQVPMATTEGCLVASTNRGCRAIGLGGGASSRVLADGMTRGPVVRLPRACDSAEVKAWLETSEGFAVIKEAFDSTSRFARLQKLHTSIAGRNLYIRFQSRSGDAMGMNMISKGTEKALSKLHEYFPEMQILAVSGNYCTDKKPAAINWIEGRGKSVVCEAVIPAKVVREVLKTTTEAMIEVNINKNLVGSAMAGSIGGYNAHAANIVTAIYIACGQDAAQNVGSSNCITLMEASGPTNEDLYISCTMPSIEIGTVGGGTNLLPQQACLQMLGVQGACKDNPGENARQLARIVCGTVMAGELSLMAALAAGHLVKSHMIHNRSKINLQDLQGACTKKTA
Description: The experiments were carried out following the manufacturer instructions and optimized protocol. The assay buffer, NADPH, substrate solution, and HMGCoAR were provided in the HMGCoAR Assay Kit (Sigma Aldrich SRL, Milan, Italy). The experiments were carried out following the manufacturer instructions at 37 °C. In particular, each reaction (200 µL) was prepared adding the reagents in the following order: 1× assay buffer, a 10–500 µM doses of P5 and P5-met or vehicle (C), the NADPH (4 µL), the substrate solution (12 µL), and finally the HMGCoAR (catalytic domain) (2 µL). Subsequently, the samples were mixed and the absorbance at 340 nm read by the microplate reader Synergy H1 (Winooski, VT, USA) at time 0 and 10 min. The HMGCoAR-dependent oxidation of NADPH and the inhibition properties of peptides were measured by absorbance reduction, which is directly proportional to enzyme activity.

IC50 [3]: 175 µM
Substance: H-LPKHSDAD-OH [Peptide P5-met]
LDLR protein level versus the control [1]: 150.4 ± 29.2%
LDLR localized on the cellular membranes of HepG2 cells versus the control ([2]; HepG2, 50 µM, without added PCSK9, mean ± SD): 145.2 ±15.2%
LDLR level on HepG2 cell surface restored, co-incubation with PCSK9 ([2]; peptide 50 µM + PCSK9 4 µg/mL, 2 h, % of control, mean ± SD): 90.1 ± 0.1%
